Literature values as cited in patent US20080185562A1, “Oxalate ester chemiluminescent light system” (Tianjin Dragon Chemiluminescent Tubes Co., Ltd., priority 2007, published 2008).

Key:
[1] = PEG value depends on molecular weight
[2] = at 122° C.
rats = settings: rat

Structure (SMILES)	Flash point (° C./° F.) [1]	Toxicity (LD50 oral, mg/kg) (mus)	Vapor pressure (kPa) [2]	Toxicity (LD50 oral, mg/kg) (rats)
OCCCO [1,3-propylene glycol]	79/174	4,770 (mus) mg/kg		
CCCCOCCOCCOCCCC [dibutyl diethylene glycol ether]	117/243		1.33 at 122 °C kPa	3,900 (rat) mg/kg
